In patent US9212168B2 (priority 2011, dated 2015):
pEC50: −log10 of the molar value.

How the values were obtained:
[1] = tested on: HCV genotype 1b replicon; test: HCV genotype 1b replicon assay (Renilla luciferase readout); type: cell-based, hepatitis C virus; details: Hepatitis C virus, read-out: Genotype 1b
Procedure, shortened: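 Reported as pEC50 derived from a 4-parameter fit of Renilla luciferase activity against concentration. Replicon cells (APC144, Huh7 background) were exposed to compound for 48 h in G418-free medium with final 0.5% DMSO, after seeding at 10,000 cells/well and 4 h adherence.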

[2] = tested on: HCV genotype 1a replicon; test: HCV genotype 1a replicon assay (NS3 protease activity readout); type: cell-based, hepatitis C virus; details: Hepatitis C virus, read-out: Genotype 1a, HCV genotype 1a replicon
Procedure, shortened: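 EC50 values came from a 4-parameter robust fit of fluorescence (ex 340, em 509 nm) produced by NS3-specific protease in lysates, assayed with 15 μM FRET substrate for 20 min at 37° C, after 48 or 72 hours of compound exposure (0.5% DMSO) of Huh7.5-derived APC89 genotype 1a replicon cells.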

[3] = tested on: HCV genotype 2a (J6 strain) NS5A chimeric replicon; test: Replicon assay against NS5A sequence of genotype 2a (J6 strain), intergenotypic chimera; type: cell-based; details: Hepatitis C virus, read-out: Genotype 2a (J6)
Protocol: (§1) Assay 4: Replicon Assays Against NS5A Sequences of Other Genotypes
(§2) Potencies of test compounds against NS5A sequences of other genotypes were determined by creating intergenotypic chimeras. The entire NS5A gene from genotypes 2a, 2b, 3a, 4a, 5a, and 6a, or the nucleotide sequence encoding amino acids 11-118 of NS5A, was subcloned into a genotype 1b replicon. For genotype 2a, intergenotypic chimeras with both the JFH and the J6 strain were created. […] Since the majority of genotype 2a sequences in public databases contain the L31M sequence variant, the use of the J6 genotype 2a sequence may better reflect the antiviral potency of NS5A inhibitors.
(§3) These chimeric replicon plasmids were then linearized and in vitro transcribed to RNA. The RNA was used to transiently or stably transfect Huh-LUNET cells by electroporation, and the potencies of test compounds against the chimeras were determined as previously described.

[4] = tested on: HCV genotype 1a Y93H resistant mutant replicon; test: Replicon assay against resistant mutant 1a Y93H (transient transfection); type: cell-based; details: Hepatitis C virus, read-out: Genotype 1a Y93H
Protocol: Assay 3: Replicon Assays Against Resistant Mutants […]
Potencies of test compounds against additional mutations of interest were determined using transient transfection assays. These mutants included genotype 1a Y93C, Y93H, M28T, Q30E, Q30K, L31M, and Y93N. The mutation was first introduced into the parental plasmid by site-directed mutagenesis. The replicon plasmid was then linearized and in vitro transcribed to RNA. The RNA was used to transiently transfect Huh-LUNET cells (obtained from ReBLikon GmbH, Schriesheim, Germany) by electroporation, and the potencies of test compounds against the mutants were determined as previously described.

[5] = tested on: HCV genotype 3a NS5A chimeric replicon; test: Replicon assay against NS5A sequence of genotype 3a, intergenotypic chimera; type: cell-based; details: Hepatitis C virus, read-out: Genotype 3a
Protocol: as §1, §2, §3

| SMILES | pEC50 [1] | pEC50 [2] | pEC50 [3] | pEC50 [4] | pEC50 [5] |
| --- | --- | --- | --- | --- | --- |
| COC(=O)N[C@H](C(=O)N1C[C@@H](OC)C[C@H]1c1nc(-c2ccc(-c3cc(Cl)c(NC(=O)c4ccc(N5CCN(C(=O)C(C)(C)C)C[C@H]5C)nc4)cc3OC(F)(F)F)cc2)c[nH]1)C(C)C [Example 13] | > 10.00 | > 10.00 | 9.00 to 10.00 | 8.00 to 9.00 | 9.00 to 10.00 |
| COC(=O)N[C@H](C(=O)N1C[C@@H](C)C[C@H]1c1nc(-c2ccc(-c3cc(F)c(NC(=O)c4ccc(N5CCN(C(=O)C(C)(C)C)C[C@H]5C)nc4)cc3OC(F)(F)F)cc2)c[nH]1)C(C)C [Example 11, [(S)-1-((2S,4S)-2-{4-[4′-({6-[(R)-4-(2,2-Dimethyl-propionyl)-2-methyl-piperazin-1-yl]-pyridine-3-carbonyl}-amino)-5′-fluoro-2′-trifluoromethoxy-biphenyl-4-yl]-1H-imidazol-2-yl}-4-methyl-pyrrolidine-1-carbonyl)-2-methyl-propyl]-carbamic acid methyl ester] | > 10.00 | > 10.00 | 8.00 to 9.00 | 6.00 to 8.00 | 8.00 to 9.00 |
| COC(=O)N[C@H](C(=O)N1C[C@@H](C)C[C@H]1c1nc(-c2ccc(-c3ccc(C(=O)Nc4ccc(N5CCN(C(=O)C(C)(C)C)C[C@H]5C)nc4)c(F)c3OC(F)(F)F)cc2)c[nH]1)C1CCOCC1 [Example 21, Methyl ((S)-2-((2S,4S)-2-(4-(3′-fluoro-4′-((6-((R)-2-methyl-4-pivaloyl-piperazin-1-yl)pyridin-3-yl)carbamoyl)-2′-(trifluoromethoxy)-[1,1′-biphenyl]-4-yl)-1H-imidazol-2-yl)-4-methylpyrrolidin-1-yl)-2-oxo-1-(tetrahydro-2H-pyran-4-yl)ethyl)carbamate] | > 10.00 | > 10.00 | 9.00 to 10.00 | 9.00 to 10.00 | 9.00 to 10.00 |
| COC(=O)N[C@H](C(=O)N1C[C@@H](C)C[C@H]1c1nc(-c2ccc(-c3ccc(C(=O)Nc4ccc(N5CCN(C(=O)C(C)(C)C)C[C@H]5C)nc4)cc3OC(F)(F)F)cc2)c(Cl)[nH]1)C(C)C [Example 12, ((S)-1-{(2S,4S)-2-[5-Chloro-4-(4′-{6-[(R)-4-(2,2-dimethyl-propionyl)-2-methyl-piperazin-1-yl]-pyridin-3-ylcarbamoyl}-2′-trifluoromethoxy-biphenyl-4-yl)-1H-imidazol-2-yl]-4-methyl-pyrrolidine-1-carbonyl}-2-methyl-propyl)-carbamic acid methyl ester] | > 10.00 | > 10.00 | 8.00 to 9.00 | 8.00 to 9.00 | 8.00 to 9.00 |
| COC(=O)N[C@H](C(=O)N1CC2(C[C@H]1c1nc(-c3ccc(-c4ccc(NC(=O)c5ccc(N6CCN(C(=O)[C@H]7CC7(C)C)C[C@H]6C)nc5)cc4OC(F)(F)F)cc3)c[nH]1)OCCO2)C(C)C [Example 4, Methyl (S)-1-((S)-8-(4-(4′-(6-((R)-4-((S)-2,2-dimethylcyclopropanecarbonyl)-2-methylpiperazin-1-yl)nicotinamido)-2′-(trifluoromethoxy)biphenyl-4-yl)-1H-imidazol-2-yl)-1,4-dioxa-7-azaspiro[4.4]nonan-7-yl)-3-methyl-1-oxobutan-2-ylcarbamate] | > 10.00 | > 10.00 | 8.00 to 9.00 | 9.00 to 10.00 | 8.00 to 9.00 |
| COC(=O)N[C@H](C(=O)N1C[C@@H](C)C[C@H]1c1nc(-c2ccc(-c3ccc(C(=O)Nc4ccc(N5CCN(C(=O)[C@H]6CC6(C)C)C[C@H]5C)nc4)cc3OC(F)(F)F)cc2)c[nH]1)C(C)C [Example 8, ((S)-1-{(2S,4S)-2-[4-(4′-{6-[(R)-4-((S)-2,2-Dimethyl-cyclopropanecarbonyl)-2-methyl-piperazin-1-yl]-pyridin-3-ylcarbamoyl}-2′-trifluoromethoxy-biphenyl-4-yl)-1H-imidazol-2-yl]-4-methyl-pyrrolidine-1-carbonyl}-2-methyl-propyl)-carbamic acid methyl ester] | > 10.00 | > 10.00 | 6.00 to 8.00 | 6.00 to 8.00 | 6.00 to 8.00 |
| COC(=O)N[C@H](C(=O)N1C[C@@H](C)C[C@H]1c1nc(-c2ccc(-c3cc(Cl)c(NC(=O)c4ccc(N5CCN(C(=O)C(C)(C)C)C[C@H]5C)nc4)cc3OC(F)(F)F)cc2)c[nH]1)C(C)C [Example 10, [(S)-1-((2S,4S)-2-{4-[5′-Chloro-4′-({6-[(R)-4-(2,2-dimethyl-propionyl)-2-methyl-piperazin-1-yl]-pyridine-3-carbonyl}-amino)-2′-trifluoromethoxy-biphenyl-4-yl]-1H-imidazol-2-yl}-4-methyl-pyrrolidine-1-carbonyl)-2-methyl-propyl]-carbamic acid methyl ester] | > 10.00 | > 10.00 | 8.00 to 9.00 | 8.00 to 9.00 | 8.00 to 9.00 |
| COC(=O)N[C@H](C(=O)N1C[C@@H](C)C[C@H]1c1nc(-c2ccc(-c3cc(Cl)c(C(=O)Nc4ccc(N5CCN(C(=O)C(C)(C)C)C[C@H]5C)nc4)cc3OC(F)(F)F)cc2)c[nH]1)C1CCOCC1 [Example 19, Methyl ((S)-2-((2S,4S)-2-(4-(5′-chloro-4′-((6-((R)-2-methyl-4-pivaloylpiperazin-1-yl)pyridin-3-yl)carbamoyl)-2′-(trifluoromethoxy)-[1,1′-biphenyl]-4-yl)-1H-imidazol-2-yl)-4-methylpyrrolidin-1-yl)-2-oxo-1-(tetrahydro-2H-pyran-4-yl)ethyl)carbamate] | > 10.00 | > 10.00 | 8.00 to 9.00 | 6.00 to 8.00 | 8.00 to 9.00 |
